Key:
[1] = target: human GABAA α5β2γ1 receptor (Homo sapiens (Human), UniProt P31644+Q8N1C3); test: Radioligand binding assay, competition for [3H]RO7239181, γ1-containing GABAA subtypes; details: Table 1; [3H]RO7239181 displacement, membranes from HEK293F cells, mean of two determinations
[2] = target: human GABAA α2β2γ1 receptor (Homo sapiens (Human), UniProt P47869+Q8N1C3); test: as above; details: for Ki: [3H]RO7239181 displacement
[3] = target: human GABAA α1β3γ2 receptor (Homo sapiens (Human), UniProt P14867+P18507); test: Radioligand binding assay, competition for [3H]Flumazenil, γ2-containing GABAA subtypes; details: Table 1; [3H]Flumazenil displacement, HEK293F cells, mean of two determinations; read-out: Ki h-GABAA α1β3γ2
How it was run: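 Transiently transfected HEK293F cells expressing human α1β3γ2 receptors, prepared in Mannitol Buffer pH 7.2-7.4, competed for [3H]Flumazenil (81.1 Ci/mmol) binding. Incubation ran to equilibrium for 1 hour at 4 °C, followed by filtration and scintillation counting. Ki values are means of two determinations.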

**Q.** With `C[C@@H]1N=C(c2c(F)cccc2F)c2c(cnc(C(F)(F)F)c2Cl)-n2nc(C(=O)NCC3(O)CC3)nc21` [Example 22, (7S)-11-chloro-9-(2,6-difluorophenyl)-N-[(1-hydroxycyclopropyl)methyl]-7-methyl-12-(trifluoromethyl)-2,3,5,8,13-pentazatricyclo[8.4.0.02,6]tetradeca-1(10),3,5,8,11,13-hexaene-4-carboxamide] as the compound, how does the Ki [1] read?
**A.** Its Ki is 6.4 nM.

**Q.** And the Ki ([2]; Ki h-GABAA α2β2γ1, Table 1, membranes from HEK293F cells, mean of two determinations)?
**A.** The Ki was 43.2 nM.

**Q.** What about the Ki ([2]; Ki h-GABAA α2β2γ1, Table 2) of the same compound?
**A.** Its Ki is 43.2 nM.

**Q.** What about the “γ2/γ1 Selectivity Ratio” value ([2]; Table 1, Ki α1β3γ2 (nM)/Ki α2β2γ1 (nM)) of the same compound?
**A.** Its value is 245.

**Q.** What about the LogSel ([2]; Table 1, Log of the γ2/γ1 Ki ratio) of the same compound?
**A.** Its LogSel is 2.39.

**Q.** What about the Ki [3] of the same compound?
**A.** Its Ki is 10600 nM.

Reference: US20240270744A1 (Hoffmann-La Roche Inc., priority 2021, published 2024)
